Measurements taken from patent US7563895B2, “Quinoxaline compounds” (Janssen Pharmaceutica, N.V., priority 2003, dated 2009).

Columns and labels:
CCK2 receptor [1] = target: T1, CCK2 receptor (Homo sapiens, UniProt P32239); assay: CCK2 receptor radioligand binding assay ([125I]-BH-CCK-8S, HEKZFP cell membranes); conditions: competition with [125I]-BH-CCK-8S, membranes of induced HEKZFP cells, 60 min at 21±3° C., Cheng-Prusoff
T1 construct: Membranes were prepared from the HEKZFP cells after induction; endogenous in cells; host or cells: HEKZFP cells (T-REx-293 with tet-inducible ZFP-VP16 specific for the CCK2R gene), doxycycline-induced; membrane preparation
T1 sequence (P32239 1-447): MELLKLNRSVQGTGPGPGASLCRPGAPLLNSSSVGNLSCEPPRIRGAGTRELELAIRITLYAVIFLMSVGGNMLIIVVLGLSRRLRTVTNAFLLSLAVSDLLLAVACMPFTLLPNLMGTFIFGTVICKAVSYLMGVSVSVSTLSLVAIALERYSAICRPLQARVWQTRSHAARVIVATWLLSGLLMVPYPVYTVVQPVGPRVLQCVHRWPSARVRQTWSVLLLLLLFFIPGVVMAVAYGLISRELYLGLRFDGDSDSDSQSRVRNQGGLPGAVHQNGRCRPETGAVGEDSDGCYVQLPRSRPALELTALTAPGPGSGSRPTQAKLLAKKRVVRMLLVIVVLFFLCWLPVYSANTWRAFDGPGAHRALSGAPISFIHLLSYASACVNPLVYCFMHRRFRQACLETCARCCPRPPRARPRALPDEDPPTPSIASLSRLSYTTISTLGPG
Method: Zinc Finger Proteins (ZFP) specific for the CCK2R gene were identified by Sangamo Biosciences. The ZFP domain was fused with the herpes simplex virus VP16 activation domain, and the fusion protein was subsequently cloned into the pcDNA3 mammalian expression vector (Invitrogen, San Diego, Calif.). […] After 2 weeks of selection in culture medium containing […] Zeocin (Invitrogen), sixty drug-resistant stable clones were isolated and analyzed for ZFP expression as well as CCK2R induction upon addition of doxycycline to the culture medium.
HEKZFP cells were grown in DMEM supplemented with L-glutamine (2 mM), penicillin (50 units/mL) and streptomycin (50 μg/mL) and 10% FBS (v/v).
Membranes were prepared from the HEKZFP cells after induction. […] The thawed pellets were homogenized using a Polytron PT-10 (7×1 s). The homogenates were centrifuged for 5 min at 1500 rpm (600×g), and the resulting pellets were discarded. The supernatants were re-centrifuged in order to collect the receptor-membrane pellets (25 min 15,000 rpm; 39,800×g), which were re-suspended in buffer A.
The assay preparation was incubated for 1 h at 21±3° C., and then the assay was terminated by rapid filtration of the preparation under reduced pressure. The loaded filters were washed three times using undiluted PBS (100 μL), and then 100 μL of scintillation fluid was added to the filter plate. Bound radioactivity was determined using a Topcount (Packard BioScience, Meriden, Conn.) with a count time of 1 min. […] To validate the radioligand concentration and incubation time for the assay, saturation and kinetic binding studies were also conducted (see M. F. Morton, The Pharmacological Characterization of Cholecystokinin Receptors in the Human Gastrointestinal Tract. PhD Thesis, University of London, 2000). […] The assay was then terminated according to the procedure outlined above.
The pKi values were determined using the equation of Y.-C.
To circumvent problems associated with computer-assisted data analysis of compounds with low affinity, the data obtained in the current study were weighed according to a method described by Morton. In brief, 100% and 0% specific binding were defined independently using total binding and binding obtained in the presence of a high concentration of the reference antagonist, 2-NAP.

CCK2 receptor [2] = target: T2, CCK2 receptor (Cavia porcellus, UniProt H0VZC5); assay: Guinea-pig gastric corpeal muscle assay (pentagastrin-induced contraction of isolated muscle strips); conditions: pentagastrin concentration-response curves
T2 construct: strips of muscle were dissected and suspended in isolated tissue organ baths; from tissue; host or cells: guinea-pig gastric corpeal muscle strips
T2 sequence (H0VZC5 1-426): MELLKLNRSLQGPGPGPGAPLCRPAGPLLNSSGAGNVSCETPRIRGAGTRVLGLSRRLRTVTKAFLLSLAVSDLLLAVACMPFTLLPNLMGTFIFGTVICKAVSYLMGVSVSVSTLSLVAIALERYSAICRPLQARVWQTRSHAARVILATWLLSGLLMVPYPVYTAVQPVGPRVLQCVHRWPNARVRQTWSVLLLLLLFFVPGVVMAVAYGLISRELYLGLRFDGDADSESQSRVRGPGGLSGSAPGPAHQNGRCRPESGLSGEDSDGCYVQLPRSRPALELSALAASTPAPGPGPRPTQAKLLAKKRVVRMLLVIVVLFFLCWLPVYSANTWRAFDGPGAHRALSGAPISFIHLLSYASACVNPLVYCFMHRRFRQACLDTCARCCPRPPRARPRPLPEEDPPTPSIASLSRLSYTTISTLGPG
Method: Guinea-Pig Gastric Corpeal Muscle Assay
CCK2 receptor-mediated muscle contraction was measured in an isolated muscle-strip assay of guinea-pig gastric corpeal muscle according to the methods described by Roberts et al. (S. P. Roberts, E. A. Harper, G. F. Watt, V. P. Gerskowitch, R. A. Hull, N. P. Shankley, and J. W. Black, Br. J. Pharmacol., 1996, 118(7): 1779-1789). In brief, strips of muscle were dissected and suspended in isolated tissue organ baths for isotonic muscle contraction recording. The baths, containing Krebs-Henseleit solution, were maintained at 24° C. and gassed continuously with 95% O2 and 5% CO2. CCK1 receptors known to be present in this assay were blocked using a selective concentration of a suitable CCK1 receptor antagonist (e.g. 2-NAP). The effectiveness of the test compounds was assessed by measuring their effect on contractile concentration-response curves obtained using a well-characterized surrogate hormone gastrin (pentagastrin).

Row | Compound | Ki (CCK2 receptor [1]) | behaviour in the assay (mode of antagonism) (CCK2 receptor [2]) | Kb (CCK2 receptor [2]; CCK1 receptors blocked, 24° C., read-out: pKB value (converted))
1 | C[C@@H](NC(=O)c1ccc(Br)cc1NS(=O)(=O)c1cccc2nccnc12)c1ccc(F)cc1F [Example 2, (R)-4-Bromo-N-[1-(2,4-difluoro-phenyl)-ethyl]-2-(quinoxaline-5-sulfonylamino)-benzamide] | 0.02 µM | competitive antagonist | 0.00158 µM
2 | O=C(c1ccc(Cl)cc1NS(=O)(=O)c1cccc2nccnc12)N1CCCCC1 [Example 79, Quinoxaline-5-sulfonic acid [5-chloro-2-(piperidine-1-carbonyl)-phenyl]-amide] | 0.251 µM | – | –
3 | O=C(c1ccc(C(F)(F)F)cc1NS(=O)(=O)c1cccc2nccnc12)N1CCOCC1 [Example 92, Quinoxaline-5-sulfonic acid [2-(morpholine-4-carbonyl)-5-trifluoromethyl-phenyl]-amide] | 0.0794 µM | – | –
4 | O=C(c1ccc(I)cc1NS(=O)(=O)c1cccc2nccnc12)N1CCOc2cc(F)cc(F)c2C1 [Example 94, Quinoxaline-5-sulfonic acid [2-(6,8-difluoro-2,3-dihydro-5H-benzo[f][1,4]oxazepine-4-carbonyl)-5-iodo-phenyl]-amide] | 0.398 µM | – | –
